21 compounds from US12668599B2, “Heterobifunctional compounds and methods of treating disease” (Halda Therapeutics OpCo, Inc., priority 2023, dated 2026) can be followed below.

Bounds are passed on as bounds.

One assay has as its system VCaP cells. Description: Cellular growth inhibition assay for VCaP cells (CellTiter-Glo 2.0, 72 hours). The class given is cell-based, human. Conditions: for GI50: CellTiter-Glo 2.0; for Ratio of GI50's: GI50 of the top compound in the pair divided by GI50 of the lower compound. The procedure:
Exemplary compounds were tested for ability to inhibit the proliferation of VCaP cells. VCap cells are a commercially available human prostate cancer cell line.
VCaP cells were purchased from American Type Cell Culture (ATCC Cat #CRL2876) and then seeded on poly-D-lysine coated, black clear-bottom 384-well plates at 5000/well in 25 μL Dulbecco's Modified Eagle Medium (DMEM) supplemented with 10% w/w Fetal bovine serum (FBS) and 1% w/w Pen-Strep. Pen-Strep is a commercially available mixture of penicillin G and streptomycin, which is used in mammalian cell culture media to prevent bacterial contamination. Dulbecco's Modified Eagle Medium (DMEM) supplemented with 10% w/w fetal bovine serum (FBS) and 1% w/w Pen-Strep is herein referred to as Treatment Medium. Following seeding of cells in the plates, the plates were spun at 300×g for 30 seconds, then equilibrated to room temperature for 30 minutes, and then deposited in a humidified tissue culture incubator maintained at 37° C. with 5% CO2.
(§1) At 24 hours after seeding of the cells, dilutions of test compound were prepared in DMSO and dissolved in Treatment Medium, to achieve a final DMSO concentration of 0.5% w/w, thereby providing the Test Compound Solution. A 25 μL aliquot of the Test Compound Solution was added to cells in the well plates. An equal volume of a solution containing DMSO and Treatment Medium was used as a negative control. Following treatment of cells with Test Compound Solution or said equal volume of a solution containing DMSO and Treatment Medium, the plates were spun at 300×g for 30 seconds, and then left in an incubator for 72 hours.
(§2) At the end of the treatment duration, cell viability was quantified with CellTiter-Glo 2.0 reagent (Promega Cat #G9243). For this purpose, plates were equilibrated to room temperature for 30 minutes, and then 25 μL of CellTiter-Glo 2.0 reagent was added to cells in the plate wells. Plates were then agitated on a shaker for two minutes at 500 rpm and subsequently incubated at room temperature for 10 minutes. Following incubation, the plates were spun at 3000×g for 30 seconds, then sealed with an optical adhesive cover, and luminescence readings were measured with an En Vision Plate Reader.
(§3) Data was normalized using zero luminescence for baseline. A four-parameter non-linear regression curve fit was applied to dose-response data in GraphPad Prism data analysis software to determine the half-maximal growth inhibitory concentration (GI50) for each test compound.
For orientation: ATP-based viability assays read luminescence as a measure of living cells.

In assay [1] the test system is T-Rex 293 cell line SC3 cells having increased expression of androgen receptor protein due to exposure to doxycycline. Description: Cellular growth inhibition, T-Rex 293 SC3 cells with doxycycline-induced androgen receptor (CellTiter-Glo 2.0, 72 hours). It counts as cell-based. As to conditions: for GI50: T-Rex 293 SC3 cells with 10 ng/ml doxycycline (increased androgen receptor expression), 72 hours, CellTiter-Glo 2.0; for Ratio of GI50's: GI50 of the top compound in the pair divided by GI50 of the lower compound, T-Rex 293 SC3 cells with doxycycline-induced androgen receptor. On the procedure: (§4) Ability of the test compounds to inhibit proliferation of the foregoing cell types was evaluated according to the procedures set forth below.
(§5) The doxycycline-inducible androgen receptor protein expressing cell line was established using the following protocol: T-Rex 293 cells were purchased from Invitrogen (Cat #R71007) and transfected using Lipofectamine 2000 with the wild-type androgen receptor protein sequence cloned into the pcDNA4/TO vector. Transfected cells were selected using 400 μg/mL Zeocin (Invitrogen Cat #R25001). Following selection, single clones were raised and maintained in Dulbecco's Modified Eagle Medium (DMEM) supplemented with 10% w/w Tetracycline-free fetal bovine serum (FBS) and 250 μg/mL Zeocin. Clones were analyzed for expression of androgen receptor protein in the presence and absence of 10 ng/ml doxycycline (Sigma Cat #D9891), and a single doxycycline-inducible clone (hereinafter “SC3”) was selected for use in downstream assays.
(§6) The SC3 cells were seeded on poly-D-lysine coated, black clear-bottom 384-well plates at 2500/well, in 25 μL Phenol Red Free Dulbecco's Modified Eagle Medium (DMEM) supplemented with 10% w/w charcoal-dextran treated fetal bovine serum (FBS) and 1% w/w pen-strep, with or without 10 ng/ml doxycycline. Pen-Strep is a commercially available mixture of penicillin G and streptomycin, which is used in mammalian cell culture media to prevent bacterial contamination. Phenol Red Free Dulbecco's Modified Eagle Medium (DMEM) supplemented with 10% w/w charcoal-dextran treated fetal bovine serum (FBS) and 1% w/w pen-strep, with or without 10 ng/mL doxycycline is herein referred to as Treatment Medium. Following seeding of cells in the plates, the plates were spun at 300×g for 30 seconds, then equilibrated to room temperature for 30 minutes, and then deposited in a humidified tissue culture incubator maintained at 37° C. with 5% CO2.
as §1, §2, §3

Assay [2] concerns T-Rex 293 cell line SC3 cells lacking increased expression of androgen receptor protein. Description: Cellular growth inhibition, T-Rex 293 SC3 cells without doxycycline (CellTiter-Glo 2.0, 72 hours). The class given is cell-based. Conditions: T-Rex 293 SC3 cells not exposed to doxycycline (no increased androgen receptor expression). The procedure: as §4, §5, §6, §1, §2, §3

As for `COc1cc(O[C@H]2CC[C@H](NC(=O)c3ccc(N4CCC5(CCC(Oc6ccc(C7=N[C@@H](C)c8nnc(C)n8-c8sc(C)c(C)c87)cc6)C5)C4)nn3)CC2)ccc1C#N` (single isomer, unassigned) [Compound I-49], the GI50 was less than 0.5 µM with VCaP cells (Homo sapiens, VCaP, 72 h); less than 0.5 µM in assay [1]; less than 0.5 µM in assay [2] (72 h).

As to `COc1cc(O[C@H]2CC[C@H](NC(=O)c3ccc(N4CCC5(CCC(c6ccc(C7=N[C@@H](C)c8nnc(C)n8-c8sc(C)c(C)c87)cc6F)CC5)C4)nn3)CC2)ccc1C#N` (single isomer, unassigned) [Compound I-56], the GI50 in the assay on VCaP cells (Homo sapiens, VCaP, 72 h) is less than 0.5 µM; in assay [1] it was less than 0.5 µM; in assay [2] (72 h), less than 0.5 µM.

Regarding `COc1cc(O[C@H]2CC[C@H](NC(=O)c3ccc(N4CCC5(CCC(c6ccc(C7=N[C@@H](C)c8nnc(C)n8-c8sc(C)c(C)c87)c(F)c6)CC5)C4)nn3)CC2)ccc1C#N` (single isomer, unassigned) [Compound I-58], the 50% growth inhibitory concentration (GI50) with VCaP cells (Homo sapiens, VCaP, 72 h) is less than 0.5 µM; in assay [1], less than 0.5 µM; in assay [2] (72 h) it was less than 0.5 µM.

With `COc1cc(O[C@H]2CC[C@H](NC(=O)c3ccc(N4CCC5(CCC(c6ccc(C7=N[C@@H](C)c8nnc(C)n8-c8sc(C)c(C)c87)c(Cl)c6)CC5)C4)nn3)CC2)ccc1C#N` (single isomer, unassigned) [Compound I-64], the GI50 in the assay with VCaP cells (Homo sapiens, VCaP, 72 h) was 0.5 to 1.5 µM; in assay [1] it was less than 0.5 µM; in assay [2] (72 h) it was less than 0.5 µM.

`COc1cc(O[C@H]2CC[C@H](NC(=O)c3ccc(N4CCC5(CCC(c6ccc(C7=N[C@@H](C)c8nnc(C)n8-c8sc(C)c(C)c87)cc6OC)CC5)C4)nn3)CC2)ccc1C#N` (single isomer, unassigned) [Compound I-66]: the concentration for 50% growth inhibition (GI50) in the assay with VCaP cells (Homo sapiens, VCaP, 72 h) was less than 0.5 µM; in assay [1], less than 0.5 µM; in assay [2] (72 h), less than 0.5 µM.

In the case of `COc1cc(O[C@H]2CC[C@H](NC(=O)c3ccc(N4CC5(CC(C#Cc6ccc(C7=NC(Cc8ncco8)c8nnc(C)n8-c8sc(C)c(C)c87)cc6F)C5)C4)nn3)CC2)ccc1C#N` (single isomer, unassigned) [Compound I-123], the GI50 was less than 0.5 µM in the assay on VCaP cells (Homo sapiens, VCaP, 72 h); less than 0.5 µM in assay [1]; greater than 3 µM in assay [2].

With `COc1cc(O[C@H]2CC[C@H](NC(=O)c3ccc(N4CC5(CC(C#Cc6ccc(C7=NC(Cc8ncco8)c8nnc(C)n8-c8sc(C)c(C)c87)cc6F)C5)C4)nn3)CC2)ccc1C#N` (single isomer, unassigned) [Compound I-127], the GI50 (in the assay on VCaP cells (72 hours); in assay [1]; in assay [2]) was less than 0.5 µM throughout.

Regarding `Cc1sc2c(c1C)C(c1ccc(CC3CC4(CCN(c5ncc(C(=O)N[C@H]6C(C)(C)[C@H](Oc7ccc(C#N)c(Cl)c7)C6(C)C)cn5)CC4)C3)cc1)=N[C@@H](Cc1ncco1)c1nnc(C)n1-2` [C, reference compound], the “Ratio of GI50's” value with VCaP cells was found to be 2.6; in assay [1], 22.0.

`COc1cc(O[C@H]2CC[C@H](NC(=O)c3ccc(N4CCCC5(CCN(c6ccc(C7=N[C@@H](C)c8nnc(C)n8-c8sc(C)c(C)c87)cc6)CC5)C4)nn3)CC2)ccc1C#N` [Compound I-18] came in with a GI50 in the assay with VCaP cells (Homo sapiens, VCaP, 72 h) of less than 0.5 µM.

As for `COc1cc(O[C@H]2CC[C@H](NC(=O)c3ccc(N4CCCC5(CCN(c6ccc(C7=N[C@@H](C)c8nnc(C)n8-c8sc(C)c(C)c87)cc6)CC5)C4)nn3)CC2)ccc1C#N` [Compound I-26], the GI50 in assay [1] and in assay [2] (72 h) was less than 0.5 µM in each case.

For `COc1cc(O[C@H]2CC[C@H](NC(=O)c3ccc(N4CCC5(CCCN(c6ccc(C7=N[C@@H](C)c8nnc(C)n8-c8sc(C)c(C)c87)cc6)C5)C4)nn3)CC2)ccc1C#N` (stereo partly drawn) [Compound I-82, N-((1r,4r)-4-(4-cyano-3-methoxyphenoxy)cyclohexyl)-6-(7-(4-((S)-2,3,6,9-tetramethyl-6H-thieno[3,2-f][1,2,4]triazolo[4,3-a][1,4]diazepin-4-yl)phenyl)-2,7-diazaspiro[4.5]decan-2-yl) pyridazine-3-carboxamide], the GI50 in the assay with VCaP cells (Homo sapiens, VCaP, 72 h) is less than 0.5 µM; in assay [1] it was less than 0.5 µM.

Take `COc1cc(O[C@H]2CC[C@H](NC(=O)c3ccc(N4CCC5(CCCN(c6ccc(C7=N[C@@H](C)c8nnc(C)n8-c8sc(C)c(C)c87)cc6)C5)C4)nn3)CC2)ccc1C#N` (stereo partly shown) [Compound I-98]: in assay [2] (72 h), the GI50 was less than 0.5 µM.

As for `COc1cc(O[C@H]2CC[C@H](NC(=O)c3ccc(N4CCC5(CCN(c6ccc(C7=N[C@@H](C)c8nnc(C)n8-c8sc(C)c(C)c87)cc6)CC56CCC6)C4)nn3)CC2)ccc1C#N` (stereo partly shown) [Compound I-130], the GI50 in the assay with VCaP cells (Homo sapiens, VCaP, 72 h) was less than 0.5 µM; in assay [1], less than 0.5 µM.

Regarding `COc1cc(O[C@H]2CC[C@H](NC(=O)c3ccc(N4CCC5(CCN(c6ccc(C7=N[C@@H](C)c8nnc(C)n8-c8sc(C)c(C)c87)cc6)CC56CCC6)C4)nn3)CC2)ccc1C#N` (stereo partly shown) [Compound I-132], in assay [2] (72 h), the concentration for 50% growth inhibition (GI50) was less than 0.5 µM.

`Cc1sc2c(c1C)C(c1ccc(C3CCC4(CC3)CCN(c3ncc(C(=O)N[C@H]5C(C)(C)[C@H](Oc6ccc(C#N)c(Cl)c6)C5(C)C)cn3)C4)cc1)=N[C@@H](Cc1ncco1)c1nnc(C)n1-2` [D, reference compound]: the “Ratio of GI50's” value in the assay with VCaP cells is on record as 6.5; in assay [1], 3.8.

As for `Cc1sc2c(c1C)C(c1ccc(OC3CC4(CCN(c5ccc(C(=O)N[C@H]6CC[C@H](Oc7ccc(C#N)c(Cl)c7)CC6)nn5)CC4)C3)cc1)=N[C@@H](Cc1ncco1)c1nnc(C)n1-2` [E, reference compound], the “Ratio of GI50's” value with VCaP cells was 4.4; in assay [1], 4.7.

For the compound `Cc1sc2c(c1C)C(c1ccc(CC3CC4(CCN(c5ccc(C(=O)N[C@H]6CC[C@H](Oc7ccc(C#N)c(Cl)c7)CC6)nn5)CC4)C3)cc1)=N[C@@H](Cc1ncco1)c1nnc(C)n1-2` [F, reference compound], the “Ratio of GI50's” value in the assay with VCaP cells is on record as 1.9; in assay [1], 3.8.

On to `Cc1sc2c(c1C)C(c1ccc(C#CC3CC4(C3)CN(c3ccc(C(=O)N[C@H]5CC[C@H](Oc6ccc(C#N)c(Cl)c6)CC5)nn3)C4)cc1)=N[C@@H](Cc1ncco1)c1nnc(C)n1-2` [G, reference compound], for which the “Ratio of GI50's” value with VCaP cells is reported as 1.5; in assay [1], 1.7.

With `Cc1sc2c(c1C)C(c1ccc(N3CCC4(CC3)CCN(c3ccc(C(=O)N[C@H]5CC[C@H](Oc6ccc(C#N)c(Cl)c6)CC5)nn3)C4)cc1)=N[C@@H](C)c1nnc(C)n1-2` [H, reference compound], the “Ratio of GI50's” value in the assay on VCaP cells was 1.8; in assay [1] it was 8.4.

Turning to `Cc1sc2c(c1C)C(c1ccc(C3CCC4(CC3)CCN(c3ccc(C(=O)N[C@H]5CC[C@H](Oc6ccc(C#N)c(Cl)c6)CC5)nn3)C4)cc1)=N[C@@H](Cc1ncco1)c1nnc(C)n1-2` (stereo partly shown) [J, reference compound], the results for the “Ratio of GI50's” value (with VCaP cells; in assay [1]) were 3.0 and 3.2, respectively.

For the compound `Cc1sc2c(c1C)C(c1ccc(C#CC3CC4(C3)CN(c3ccc(C(=O)N[C@H]5CC[C@H](Oc6ccc(C#N)c(Cl)c6)CC5)nn3)C4)cc1F)=NC(Cc1ncco1)c1nnc(C)n1-2` (stereo partly shown) [K, reference compound], the “Ratio of GI50's” value worked out at 1.5 in the assay on VCaP cells and 2.0 in assay [1].

Broadly, the GI50 is the concentration giving 50% growth inhibition. Lower therefore signals more potent growth inhibition.
